Results taken from US20060063759A1, “Tricyclic steroid hormone nuclear receptor modulators” (priority 2002, published 2006).

What was measured:
[1] = biological target: T1, human MR (Homo sapiens, UniProt P08235); test: Mineralocorticoid Receptor Binding Assay ([3H]-aldosterone); conditions: [3H]-aldosterone binding, human MR expressed in Sf9 cells; read-out: MR Ki
T1 construct: The full length human MR gene is cloned from a human kidney or human brain cDNA library; His tag from the pAcHLT vector (own knowledge); made in house; host or cells: Sf9 insect cells (baculovirus, pAcHLT transfer vector)
T1 sequence (P08235 1-984): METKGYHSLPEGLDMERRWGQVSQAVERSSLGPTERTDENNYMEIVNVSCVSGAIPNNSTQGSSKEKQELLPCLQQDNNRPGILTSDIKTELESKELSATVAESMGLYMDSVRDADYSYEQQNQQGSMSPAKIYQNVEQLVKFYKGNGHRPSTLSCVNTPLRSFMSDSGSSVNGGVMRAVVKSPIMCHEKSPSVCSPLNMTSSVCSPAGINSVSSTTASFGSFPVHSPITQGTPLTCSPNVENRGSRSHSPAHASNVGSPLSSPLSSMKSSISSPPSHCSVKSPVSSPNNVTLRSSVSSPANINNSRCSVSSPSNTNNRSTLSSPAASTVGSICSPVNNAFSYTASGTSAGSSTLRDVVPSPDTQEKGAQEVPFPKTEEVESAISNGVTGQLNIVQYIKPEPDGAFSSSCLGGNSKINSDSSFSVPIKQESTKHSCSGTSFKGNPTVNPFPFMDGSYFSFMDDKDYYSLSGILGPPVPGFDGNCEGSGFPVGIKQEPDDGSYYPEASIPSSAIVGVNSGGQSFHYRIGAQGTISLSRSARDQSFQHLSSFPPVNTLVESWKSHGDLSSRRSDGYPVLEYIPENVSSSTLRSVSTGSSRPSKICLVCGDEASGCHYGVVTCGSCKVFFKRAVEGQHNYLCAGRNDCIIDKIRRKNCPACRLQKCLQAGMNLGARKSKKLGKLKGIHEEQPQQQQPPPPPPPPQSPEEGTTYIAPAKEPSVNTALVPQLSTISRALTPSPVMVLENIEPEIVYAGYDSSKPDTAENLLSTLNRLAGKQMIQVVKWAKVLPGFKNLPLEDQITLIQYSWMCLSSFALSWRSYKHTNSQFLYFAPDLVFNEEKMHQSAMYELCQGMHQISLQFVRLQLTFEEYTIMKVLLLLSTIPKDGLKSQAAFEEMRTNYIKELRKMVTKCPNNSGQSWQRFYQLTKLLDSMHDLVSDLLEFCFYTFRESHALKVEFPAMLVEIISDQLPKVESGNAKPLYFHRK
Method in brief: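 Receptor source: freeze-thaw lysate of baculovirus-infected Sf9 cells carrying full-length human MR, 20-25 μg protein. Incubation ~16 h at 4 °C with shaking, pH 7.5 buffer containing 30 mM sodium molybdate and 10% glycerol.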

[2] = biological target: T2, glucocorticoid receptor (Homo sapiens, UniProt P04150); test: Glucocorticoid Receptor Binding Assay ([3H]-dexamethasone, A549 cell extract); conditions: [3H]-dexamethasone binding, read-out: GR Ki
T2 construct: containing 50-200 ug of A549 cell extract and 1.86 nM [^3H]-dexamethasone; host or cells: A549 human lung epithelial cells (sonicated cell extract)
T2 sequence (P04150 1-777): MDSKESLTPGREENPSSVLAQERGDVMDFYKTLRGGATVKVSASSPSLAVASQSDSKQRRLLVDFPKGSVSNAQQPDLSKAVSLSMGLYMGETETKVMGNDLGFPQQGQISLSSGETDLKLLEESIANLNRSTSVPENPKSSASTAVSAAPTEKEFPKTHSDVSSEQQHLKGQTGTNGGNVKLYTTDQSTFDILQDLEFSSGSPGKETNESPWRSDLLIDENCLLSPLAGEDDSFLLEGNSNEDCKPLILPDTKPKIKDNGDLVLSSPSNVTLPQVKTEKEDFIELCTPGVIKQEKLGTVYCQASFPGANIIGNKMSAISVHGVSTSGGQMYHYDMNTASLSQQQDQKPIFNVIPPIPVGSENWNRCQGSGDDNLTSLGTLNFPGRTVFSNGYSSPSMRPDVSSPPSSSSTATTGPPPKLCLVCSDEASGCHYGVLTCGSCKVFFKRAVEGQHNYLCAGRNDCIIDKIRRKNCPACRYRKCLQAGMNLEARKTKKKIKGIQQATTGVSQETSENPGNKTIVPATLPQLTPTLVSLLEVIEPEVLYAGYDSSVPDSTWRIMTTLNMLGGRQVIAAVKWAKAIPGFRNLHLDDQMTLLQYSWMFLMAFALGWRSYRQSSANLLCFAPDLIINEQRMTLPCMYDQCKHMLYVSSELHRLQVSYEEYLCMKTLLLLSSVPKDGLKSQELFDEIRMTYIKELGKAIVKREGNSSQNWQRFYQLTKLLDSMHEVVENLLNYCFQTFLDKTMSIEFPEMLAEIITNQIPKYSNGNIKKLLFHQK
Method in brief: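 Displacement of [3H]-dexamethasone (1.86 nM) from glucocorticoid receptor in sonicated A549 lung epithelial cell extracts, 16 h at 4 °C, pH 7.2 molybdate-containing buffer. Bound radioactivity was scintillation-counted after charcoal/dextran stripping of free ligand.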

Ki [1] [nM] | Ki [2] [nM] | Compound
< 500 | < 1000 | O=c1[nH]c2ccc(/C=C3\c4ccc(Cl)cc4COc4ccccc43)cc2[nH]1 [Example 641]
< 500 | < 1000 | O=c1[nH]c2ccc(/C=C3\c4ccccc4COc4c(F)cccc43)cc2[nH]1 [Example 642]
< 500 | < 10000 | O=c1[nH]c2ccc(/C=C3\c4ccccc4COc4cc(C(F)(F)F)ccc43)cc2[nH]1 [Example 643]
< 500 | < 1000 | O=c1[nH]c2ccc(C=C3c4ccc(F)cc4COc4cc(F)ccc43)cc2[nH]1 [Example 644]
< 500 | < 1000 | O=c1[nH]c2cc(/C=C3\c4ccccc4COc4cc(F)ccc43)ccc2n1CCN1CCCC1 [Example 646]
< 500 | < 1000 | O=c1[nH]c2cc(/C=C3\c4ccccc4COc4cc(Cl)ccc43)ccc2n1CCN1CCOCC1 [Example 647]
< 500 | < 500 | COc1cccc(C=C2c3ccccc3CNc3ccccc32)c1 [Example 650]
< 500 | < 1000 | CN1C(=O)c2ccccc2C(=Cc2cccc(N)c2)c2ccccc21 [Example 651]
< 500 | < 10000 | CN1C(=O)c2ccccc2C(=Cc2cccc(NS(C)(=O)=O)c2)c2ccccc21 [Example 652]
< 500 | < 1000 | CN1Cc2ccccc2C(=Cc2cccc(NS(C)(=O)=O)c2)c2ccccc21 [Example 653]
< 500 | < 500 | COc1cccc(C=C2c3cc(Cl)ccc3NC(=O)c3ccccc32)c1 [Example 654]
< 500 | < 500 | COc1cccc(C=C2c3ccccc3C(=O)N(C)c3ccc(Cl)cc32)c1 [Example 656]
< 1000 | < 10000 | COC(=O)c1ccc2c(c1)/C(=C\c1cccc(NS(C)(=O)=O)c1)c1ccccc1CO2 [Example 659]
< 500 | < 500 | COc1ccc2c(c1)OCc1ccccc1/C2=C/c1cccc(NS(C)(=O)=O)c1 [Example 660]
< 500 | < 500 | COc1ccc2c(c1)OCc1ccccc1/C2=C\c1cccc(NS(C)(=O)=O)c1 [Example 661]
< 500 | < 500 | CS(=O)(=O)Nc1cccc(/C=C2/c3ccccc3COc3c(Cl)cccc32)c1 [Example 662]
< 500 | < 500 | CS(=O)(=O)Nc1cccc(/C=C2\c3ccccc3COc3c(Cl)cccc32)c1 [Example 663]
< 500 | < 500 | CS(=O)(=O)Nc1cccc(/C=C2/c3ccccc3COc3cc(Cl)ccc32)c1 [Example 664]
< 500 | < 500 | CS(=O)(=O)Nc1cccc(/C=C2\c3ccccc3COc3cc(Cl)ccc32)c1 [Example 665]
< 500 | < 500 | CN(c1cccc(/C=C2/c3ccccc3COc3c(Cl)cccc32)c1)S(C)(=O)=O [Example 666]
< 1000 | < 10000 | CN(c1cccc(/C=C2\c3ccccc3COc3cc(Cl)ccc32)c1)S(C)(=O)=O [Example 667]
< 500 | < 1000 | COc1cc2c(cc1Br)/C(=C/c1cccc(NS(C)(=O)=O)c1)c1ccccc1CO2 [Example 668]
< 500 | < 500 | COc1cccc2c1OCc1ccccc1/C2=C/c1cccc(NS(C)(=O)=O)c1 [Example 669]
< 500 | < 500 | CS(=O)(=O)Nc1cccc(/C=C2\c3ccccc3COc3c(F)cccc32)c1 [Example 670]

Ki [1] [nM] | Ki [2] [nM] | Compound
< 500 | < 500 | CS(=O)(=O)Nc1cccc(/C=C2/c3ccccc3COc3ccc(F)cc32)c1 [Example 671]
< 500 | < 500 | CS(=O)(=O)Nc1cccc(/C=C2\c3ccccc3COc3ccc(F)cc32)c1 [Example 672]
< 500 | < 500 | Cc1cccc2c1OCc1ccccc1/C2=C/c1cccc(NS(C)(=O)=O)c1 [Example 673]
< 500 | < 500 | Cc1cccc2c1OCc1ccccc1/C2=C\c1cccc(NS(C)(=O)=O)c1 [Example 674]
< 500 | < 500 | Cc1ccc2c(c1)OCc1ccccc1/C2=C/c1cccc(NS(C)(=O)=O)c1 [Example 675]
< 500 | < 500 | Cc1ccc2c(c1)OCc1ccccc1/C2=C\c1cccc(NS(C)(=O)=O)c1 [Example 676]
< 500 | < 500 | Cc1ccc2c(c1)/C(=C\c1cccc(NS(C)(=O)=O)c1)c1ccccc1CO2 [Example 677]
< 500 | < 500 | COc1ccc2c(c1)/C(=C/c1cccc(NS(C)(=O)=O)c1)c1ccccc1CO2 [Example 679]
< 500 | < 1000 | CS(=O)(=O)Nc1cccc(/C=C2/c3ccccc3COc3ccc(Cl)cc32)c1 [Example 680]
< 500 | < 500 | CS(=O)(=O)Nc1cccc(/C=C2\c3ccccc3COc3ccc(Cl)cc32)c1 [Example 681]
< 500 | < 500 | CS(=O)(=O)Nc1cccc(/C=C2/c3ccccc3COc3cc(C(F)(F)F)ccc32)c1 [Example 682]
< 500 | < 500 | CS(=O)(=O)Nc1cccc(/C=C2\c3ccccc3COc3cc(C(F)(F)F)ccc32)c1 [Example 683]
< 500 | < 500 | COc1ccc2c(c1OC)CSc1ccccc1/C2=C/c1cccc(NS(C)(=O)=O)c1 [Example 684]
< 500 | < 500 | COc1ccc2c(c1OC)CSc1ccccc1/C2=C\c1cccc(NS(C)(=O)=O)c1 [Example 685]
< 500 | < 500 | COc1cc2c(c(OC)c1)/C(=C\c1cccc(NS(C)(=O)=O)c1)c1ccccc1SC2 [Example 687]
< 500 | < 500 | COc1ccc(C=C2c3ccccc3CSc3ccccc32)cn1 [Example 688]
< 1000 | < 500 | CC(=O)Nc1cccc(/C=C2\c3ccccc3CSc3ccccc32)c1 [Example 691]
< 500 | < 500 | COc1ccc2c(c1)CSc1ccccc1/C2=C/c1cccc(NS(C)(=O)=O)c1 [Example 692]
< 500 | < 500 | CS(=O)(=O)Nc1cccc(C=C2c3ccc(Cl)cc3CSc3ccccc32)c1 [Example 693]
< 500 | < 500 | COc1ccc2c(c1)SCc1ccccc1/C2=C\c1cccc(NS(C)(=O)=O)c1 [Example 694]
< 500 | < 500 | Cc1cccc2c1SCc1ccccc1C2=Cc1cccc(NS(C)(=O)=O)c1 [Example 695]
< 500 | < 500 | COc1cccc2c1/C(=C\c1cccc(NS(C)(=O)=O)c1)c1ccccc1SC2 [Example 696]
< 1000 | < 500 | O=S(=O)(Nc1cccc(/C=C2\c3ccccc3CSc3ccccc32)c1)C1CC1 [Example 698]
